{"source": "paper PMC4015918", "about": "“Conjugation to a SMAC mimetic potentiates sigma-2 ligand induced tumor cell death in ovarian cancer” (Molecular Cancer, 2014)", "format_in_all_cases": "cell-based", "key": {"[1]": {"tested_on": "caspase 3, caspase 8, and caspase 9", "experiment": "Western blot for precursors and activated forms of caspases 8, 9 and 3", "conditions": "10 μM, 24 hours, different ovarian cancer cell lines", "procedure": "(§1) Figure 3 Treatment with SW IV-134 results in caspase-mediated cell death. (A) Cells were treated with vehicle only (Ctrl.), SW43 (10 μM), and SW IV-134 (10 μM) for 24 hours. Cell lysates were subjected to Western blot analysis, and probed with antibodies specific for the precursors and activated forms of caspases 8, 9, and 3. (B) SKOV3 cells were treated with SW IV-134 at indicated doses either alone or in the presence of the pan-caspase inhibitor Z-VAD-FMK (20 μM) for 18 hours. Cell viability was determined by CellTiter-Glo assays (p < 0.018, Student’s t-test).\n(§2) Cells were lysed in radioimmunoprecipitation assay buffer [50 mM Tris, 150 mM sodium chloride, 1.0 mM EDTA, 1% Nonidet P40, and 0.25% SDS (pH 7.0)], supplemented with complete protease inhibitor cocktail (Roche, Mannheim) and phosphatase inhibitor cocktail 1 (Sigma Chemical Co., St. Louis, MO). The protein concentration was determined using a BioRad Dc protein assay kit (Bio-Rad Laboratories, Hercules, CA). Lysates containing 30 μg of protein were run on a 12% polyacrylamide gel and transferred to a PVDF membrane (Bio-Rad Laboratories, Hercules, CA). […]"}, "SKOV3 cells": {"tested_on": "SKOV3 cells", "experiment": "SKOV3 cell viability (CellTiter-Glo) with SW IV-134 alone or with pathway blockers", "procedure": "as §1\n(§3) Figure 4 SW IV-134 engages in SMAC-dependent pathway activation. (A) SKOV3 cells were treated with vehicle only (Ctrl.), SW43 (10 μM), and SW IV-134 (10 μM) for 4 hours and cell lysates were subjected to Western blot analysis using antibodies against XIAP, cIAP-1, cIAP-2, NF-қB and NIK. While XIAP seems unaffected under the conditions used, cIAP-1 and cIAP-2 proteins are readily undetectable shortly post treatment. SW IV-134 treatment also leads to accumulation of NF-қB inducing kinase (NIK) and activation of NF-қB pathway. (B) SKOV3 cells were treated with SW IV-134 at the indicated doses either alone or in the presence of proteasome inhibitor MG132 (20 μM) for 18 hours. […] Cell viability was determined as described in the experimental methods (p < 0.011, Student’s t-test).\nFigure 5 SW IV-134 induces activation of the TNFα-dependent extrinsic death pathway. (A) Quantitative real-time PCR analysis of TNFα mRNA expression was done on RNA samples derived from SKOV3 cells treated with SW IV-134 (1 μM and 3 μM) for indicated time periods. All values were normalized to a GAPDH internal control (p < 0.0001, one-way ANOVA). […] Cell viability was determined as described in the experimental methods (p < 0.019, Student’s t-test).\nCells (1 × 10^4) were seeded into 96 well plates. […] Cell viability was determined 18 hours after treatment using CellTiter-Glo Luminiscent Viability Assay (Promega, Madison, WI). Data were recorded with a SpectraMax Gemini microplate spectrofluorometer, Molecular Devices (Silicon Valley, CA)."}, "Hey A8 cells": {"tested_on": "Hey A8 cells", "experiment": "Caspase-Glo caspase 3, 8 and 9 activity in Hey A8 cells", "conditions": "24 hours", "procedure": "Caspase 3, 8 and 9 activities were measured using Caspase-Glo® Assay Systems according to the manufacturer’s instructions (Promega, Madison, WI). Briefly, the assay systems are based on caspase-specific substrates, which are activated by cleavage, resulting in caspase specific luminescence signals. HeyA8 cells were plated at a density of 1 × 10^4 in white 96 well, clear bottom plates for 24 hours before treatment. Cells were treated with different concentrations of SW IV-134. Caspase 3, 8 and 9 assays were performed by adding 100 μl of caspase reagents to each well. The contents were mixed using a plate shaker for 30 seconds and incubated at room temperature for 90 minutes. Luminescence signal was measured using a multi-mode microplate reader (BioTek, Winooski, VT).\nSupplementary file 1476-4598-13-50-S3.pdf: Additional file 3: Figure S2 SW IV-134 induces caspase activation in ovarian cancer. Caspase 3, 8 and 9 activities were measured in Hey A8 cells using Caspase-Glo® Assay Systems (Promega). Hey A8 cells were treated with SW IV-134 at indicated drug concentrations for 24 hours. Caspase assays were performed by adding 100 μl lysis buffer containing the substrates for the respective caspase to be assayed. Luminescence signal intensities were recorded using a multi-mode microplate reader (BioTek). […] (A) caspase 8; (B) caspase 9; and (C) caspase 3. p < 0.001 for all analyses, one-way ANOVA. […]"}, "TNFα": {"tested_on": "TNFα", "experiment": "TNFα ELISA of cell culture supernatants", "conditions": "SKOV3 conditioned medium, 1 μM and 3 μM", "procedure": "Figure 5 SW IV-134 induces activation of the TNFα-dependent extrinsic death pathway. (A) Quantitative real-time PCR analysis of TNFα mRNA expression was done on RNA samples derived from SKOV3 cells treated with SW IV-134 (1 μM and 3 μM) for indicated time periods. All values were normalized to a GAPDH internal control (p < 0.0001, one-way ANOVA). (B) SKOV3 cells were treated with SW IV-134 (1 μM and 3 μM) and cell-culture supernatants were collected at 4, 12, and 24 hours after treatment, and subsequently examined by anti-TNFα ELISA according to manufacturer’s instructions (p < 0.0001, one-way ANOVA). (C) SKOV3 cells were treated with SW IV-134 at indicated doses either alone or in the presence of anti-TNFα blocking antibody for 18 hours. Cell viability was determined as described in the experimental methods (p < 0.019, Student’s t-test).\nSKOV3 cells were treated with SW IV-134 (1 μM and 3 μM). Cell culture supernatants were collected at 4, 12, and 24 hours after treatment. Medium was collected, floating cells were removed by centrifugation at 1200 × g for 5 minutes, and samples were frozen at -20°C until analysis. TNFα ELISA was performed using a quantitative high sensitivity sandwich immunoassay from eBioscience (San Diego, CA) as per the manufacturer’s instructions."}, "NF-қB (p65)": {"tested_on": "NF-қB (p65)", "experiment": "Western blot for phosphorylation of NF-қB (p65)", "conditions": "SKOV3 cells, 10 μM, 4 hours", "procedure": "as §3, §2"}}}
{"smiles": "COc1ccc(C)cc1NC(=O)OC1CC2CCCC(C1)N2CCCCCCCCCCN[C@@H](C)C(=O)N[C@H](C(=O)N1CCC[C@H]1C(=O)N[C@@H]1CCCc2ccccc21)C(C)(C)C", "note": "(stereo partly drawn) [SW IV-134]", "values": [{"measurement": "Activation of caspase 3, caspase 8, and caspase 9", "setting": "[1]", "value": "induced"}, {"measurement": "Cell death induced by SW IV-134 in the presence of TNFα-blocking antibody", "setting": "SKOV3 cells; SKOV3, 18 hours", "value": "significant protection from cell death"}, {"measurement": "SW IV-134 mediated cell death in the presence of proteasome inhibitor MG132", "setting": "SKOV3 cells; SKOV3, MG132 20 μM, 18 hours", "value": "significantly reduced"}, {"measurement": "SW IV-134 induced cell death in the presence of pan-caspase inhibitor Z-VAD-FMK", "setting": "SKOV3 cells; SKOV3, Z-VAD-FMK 20 μM, 18 hours", "value": "significantly reduced"}, {"measurement": "Caspase 3, 8 and 9 activities (fold over DMSO control)", "setting": "Hey A8 cells", "value": "significant increases in caspase activities"}, {"measurement": "TNFα protein secretion", "setting": "TNFα; 4 hours", "value": "undetectable"}, {"measurement": "TNFα protein secretion", "setting": "TNFα; 12 hours", "value": "mildly elevated"}, {"measurement": "TNFα protein secretion", "setting": "TNFα; 24 hours", "value": "highest levels"}, {"measurement": "Activation (phosphorylation) of NF-қB (p65)", "setting": "NF-қB (p65)", "value": "activation (phosphorylation) of NF-қB (p65)"}]}
